Patent publication US12214058B2, “Imaging methods using deuterated compounds” (Genentech, Inc., priority 2014, dated 2025)

Tests used:
[1] = Microsomal stability assay, mouse liver microsomes; type: in vitro ADME; conditions: 5 min; for fraction of unmetabolized compound: non-radiolabeled
Description: (§1) Microsomal stability assays The tracer [^18F][A]-d2 or [^18F][A] was dissolved in potassium phosphate (Kpi) buffer (100 mM) at concentration 500-600 μCi/mL. The non-radioactive 7 and 10 were dissolved in Kpi buffer at 10 μM concentration. The reaction vessel was charged with human or mouse liver microsome suspension (12.5 μL, 20 mg/mL) followed by Kpi buffer (388 μL, 10 mM), NADPH (50 μL, 10 mM) and incubated at 37° C. for 5-10 min. A solution of the radioactive [^18F][A]-d2 or [^18F][A] (50 μL, 250-300 μCi) or non-radioactive 7 or 8 (50 μL, 10 μM) were added to the reaction vessel and the mixture was incubated at 37° C. Aliquots (50 μL) of the reaction mixture were taken at 5, 15 and 45 minutes post addition of the tested compound, mixed with ice-cold acetonitrile (100 μL) and centrifuged. The supernatant was analyzed by LCMS (System E).

[2] = Microsomal stability assay, human liver microsomes; type: in vitro ADME; conditions: for amount of remaining compound: non-radiolabeled, 40 min
Description: as §1, with “Aliquots (50 μL) of the reaction mixture were taken at 5, 15 and 45 minutes post addition of the tested compound, mixed with ice-cold acetonitrile (100 μL) and centrifuged.” left out

[3] = Dynamic microPET imaging in mice; type: in vivo, mice (C57BL/6)
Description: MicroPET Imaging The PET imaging was performed on Inveon PET/CT scanner (Siemens Medical Solutions USA Inc.). Animals anesthetized with sevoflurane were placed head-first, prone position on the scanner bed and dynamic 45 min scans were initiated. Approximately 3.7 MBq of ^18F-radiolabeled tracer in isotonic solution (100-130 μL) was administered as 60 second intravenous infusion via the tail vein. Body temperature was measured by a rectal probe and maintained with warm air flow at 37° C. Full-body iterative image reconstructions were obtained using maximum a posteriori algorithm (MAP, hyperparameter β 0.05) and corrected for signal attenuation using the tissue density obtained from CT. Projections were created with PMOD 3.305 (PMOD Technologies, Ltd., Zurich, Switzerland) and used to obtain quantitative activity levels in each organ of interest using region-of-interest analysis.

[4] = test system: tau (NFTs) in human brain tissues; experiment: Autoradiography on postmortem human brain tissues; type: binding
Description: Autoradiography The tracer [^18F][A] or [^18F][A]-d2 was dissolved in PBS containing 5% DMSO and 5% ethanol at final concentration 40 μCi/mL. Then 0.5 ml of stock solution was transferred to a microscope slide with 5 μm thick freshly dried section of a tissue and incubated for 90 min at room temperature. The slides were washed by dipping into following solutions: PBS for 1 min, 70% ethanol 2 min, 30% ethanol 2 min and PBS 1 min. The samples were dried at room temperature for 30 min and exposed to phosphorimager plate for 20 h. The exposed plates were scanned at 25 μm resolution.
Autoradiographic evaluation of [^18F][A] and [^18F][A]-d2 was performed using brain tissues collected postmortem from human donors. […] The positive staining was found in grey matter of tissues containing high level of NFTs and high AD-amyloid characterized as Braak score 5. […] The NFT and Aβ-amyloid burden was measured by standard immunohistochemical methods.

[5] = biological target: tau aggregates in AD patient tissues; conditions: cited from earlier work
[6] = Microsomal stability assay, rhesus liver microsomes; type: in vitro ADME
Description: as §1, with “E). The radiolabeled tracers [^18F][A] and [^18F][A]-d2 (n=3) were incubated with human, rhesus or mouse liver microsome suspension with or without NADPH at 37° C. and the mixture was analyzed for a presence of radioactive metabolites at 5, 15 and 45 min. In the presence of mouse and rhesus liver microsomes, both the [^18F][A] and [^18F][A]-d2 metabolized rapidly to ^18F-fluoride (retention time (rt)=0.38 min), and two radioactive metabolites M2 and M1 (rt=1.2 and 1.4 min). […]” for “E).”

| fraction of unmetabolized compound [1] | amount of remaining compound [2] | bone uptake ([3]; n=6, 30-45 min post tracer injection) | autoradiographic binding pattern ([4]; human brain tissues, positive staining in grey matter with high NFTs, Braak score 5) | amount of parent compound ([1]; radiolabeled, n=3) | fraction attributed to parent compound ([2]; radiolabeled, 45 min incubation, n=3) | stability of parent compound compared with mouse liver microsomes [6] | uptake in liver and kidneys, comparison of the two tracers ([3]; n=6) | peak uptake in brain ([3]; n=6, i.v., dynamic PET) | SMILES | staining of negative control tissues ([4]; high or moderate amyloid burden but no NFTs, Braak score 3 or 2) | Kd ([5]; AD patient tissues, read-out: affinity for tau aggregates in AD patient tissues) | selectivity for tau over Aβ amyloid [5] |
| --- | --- | --- | --- | --- | --- | --- | --- | --- | --- | --- | --- | --- |
| 2% | 15% | 31.2±4.8 % ID/g |  |  |  |  |  |  | FCCC1CCN(c2ccn3c(n2)nc2ccccc23)CC1 [[A], 2-(1-(benzo[4,5]imidazo[1,2-a]pyrimidine-2-yl)piperidin-4-yl)-1-fluoroethane, reference compound] |  |  |  |
| 11% | 56% |  |  |  |  |  |  |  | [2H]C([2H])(F)CC1CCN(c2ccn3c(n2)nc2ccccc23)CC1 [[A]-d2, 1,1-dideutero-2-(1-(benzo[4,5]imidazo[1,2-a]pyrimidine-2-yl)piperidin-4-yl)-1-fluoroethane] |  |  |  |
|  |  |  | tau specific binding patterns | 1.6±0.9% | 35.7±0.9% | slightly more stable | indistinguishable | 8.3±2.0 % ID/g | [18F]CCC1CCN(c2ccn3c(n2)nc2ccccc23)CC1 [[^18F][A], 2-(1-(benzo[4,5]imidazo[1,2-a]pyrimidine-2-yl)piperidin-4-yl)-1-[^18F]fluoroethane, reference compound] | not positively stained | 0.022 µM | 27 fold |
